Data reported in PMC11345332, “Expression, Purification and Biophysical Characterisation of Klebsiella Pneumoniae Protein Adenylyltransferase: A Systematic Integration of Empirical and Computational Modelling Approaches” (The Protein Journal, 2024).

Assays:
[1] = biological target: T1, KpPrAT (Klebsiella pneumoniae protein adenylyltransferase) (Klebsiella variicola, UniProt B5XQE2); test: biochemical; design: gene ydiU
Excerpt: isothermal titration calorimetry on KpPrAT (Klebsiella pneumoniae protein adenylyltransferase)

[2] = biological target: T1, KpPrAT (Klebsiella pneumoniae protein adenylyltransferase); test: fluorescence emission blue shift and intensity increase; format: binding; design: gene ydiU; synthetic gene in pET-11a (NdeI/BamHI), N-terminal His6 tag kept (no cleavage described), E. coli T7 cells, Ni-IMAC, about 54 kDa; settings: 10 µM mant-ATP, 2 µM protein, 20 mM sodium phosphate pH 7.4, 20 °C, with or without 5 mM MgCl2; labelled compound

T1 sequence (B5XQE2 whole entry): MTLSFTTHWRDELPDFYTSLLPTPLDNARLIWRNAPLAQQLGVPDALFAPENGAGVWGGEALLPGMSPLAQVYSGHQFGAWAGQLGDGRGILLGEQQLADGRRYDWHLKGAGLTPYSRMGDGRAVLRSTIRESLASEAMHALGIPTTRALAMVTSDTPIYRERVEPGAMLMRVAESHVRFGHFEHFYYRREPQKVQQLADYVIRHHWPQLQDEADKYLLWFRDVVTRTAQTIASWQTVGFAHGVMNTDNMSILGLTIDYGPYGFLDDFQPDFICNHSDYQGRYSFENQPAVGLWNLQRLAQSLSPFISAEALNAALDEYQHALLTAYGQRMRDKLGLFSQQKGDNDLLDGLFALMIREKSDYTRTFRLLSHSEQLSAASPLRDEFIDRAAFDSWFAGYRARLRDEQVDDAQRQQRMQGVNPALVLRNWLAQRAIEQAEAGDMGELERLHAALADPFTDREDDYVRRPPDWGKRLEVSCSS

Compound | Kd [1] | fluorescence emission blue shift and intensity increase [2]
Nc1ncnc2c1ncn2[C@@H]1O[C@H](COP(=O)(O)OP(=O)(O)OP(=O)(O)O)[C@@H](O)[C@H]1O [ATP] | 2930 nM | 
CNc1ccccc1C(=O)O[C@H]1[C@@H](O)[C@H](n2cnc3c(N)ncnc32)O[C@@H]1COP(=O)(O)OP(=O)(O)OP(=O)(O)O [mant-ATP, 2ʹ/3’-O-(N-Methylanthraniloyl) adenosine 5ʹ-triphosphate] |  | An increase in fluorescence intensity and blue shift occurs when KpPrAT binds to mant-ATP
